Here are results for 15 compounds from patent publication US8759333B2, “Di-azetidinyl diamide as monoacylglycerol lipase inhibitors” (Janssen Pharmaceutica, NV, priority 2010, dated 2014).

Molecules are shown by their SMILES. Substitutions are numbered along the chain they refer to. Where only a bound is given, the exact number is not on record here.

Test [1] addresses T1, wild type MGL (wt-MGLL 6H-11-313) (Homo sapiens, UniProt Q99685).
T1 construct: purified wild type MGL (wt-MGLL 6H-11-313); 6H (hexahistidine) (N)
T1 sequence (Q99685 1-303): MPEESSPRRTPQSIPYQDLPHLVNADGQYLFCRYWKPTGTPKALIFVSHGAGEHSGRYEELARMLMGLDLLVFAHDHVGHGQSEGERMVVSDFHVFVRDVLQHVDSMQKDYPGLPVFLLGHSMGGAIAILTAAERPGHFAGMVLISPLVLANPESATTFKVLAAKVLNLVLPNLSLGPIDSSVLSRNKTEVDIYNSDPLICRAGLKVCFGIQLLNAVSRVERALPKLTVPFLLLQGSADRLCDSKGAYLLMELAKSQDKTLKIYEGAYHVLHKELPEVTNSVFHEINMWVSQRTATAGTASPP
Briefly: MGL Enzyme Activity Assay, purified wild type MGL, 4MU-B substrate. The following applies: wild type MGL 5 nM, 4MU-B 10 μM, 37° C.; read-out: MGL wild type inh IC50. In kind it is biochemical. The protocol: All rate-based assays were performed in black 384-well polypropylene PCR microplates (Abgene) in a total volume of 30 μL. […] Final compound concentrations ranged from 17 to 0.0003 μM.
(§1) The IC50 values for the following compounds were determined using Microsoft Office Excel from a fit of the equation to the concentration-response plot of the fractional activity as a function of inhibitor concentration.

The target in the next test is T2, MGL (Rattus norvegicus, UniProt Q8R431).
T2 construct: one g rat brain was homogenized using a Polytron homogenizer; from tissue; host or cells: rat brain homogenate
T2 sequence (Q8R431 1-303): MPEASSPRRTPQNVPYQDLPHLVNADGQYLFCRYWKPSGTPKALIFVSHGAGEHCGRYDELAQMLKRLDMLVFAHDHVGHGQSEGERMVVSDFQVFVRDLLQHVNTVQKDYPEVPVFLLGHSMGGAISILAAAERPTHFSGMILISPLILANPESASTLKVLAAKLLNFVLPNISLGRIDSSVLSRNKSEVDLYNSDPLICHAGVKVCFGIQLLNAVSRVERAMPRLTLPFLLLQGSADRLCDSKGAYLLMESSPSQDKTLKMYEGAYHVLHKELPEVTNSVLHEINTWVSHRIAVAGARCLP
Briefly: 2-AG Accumulation Assay in rat brain homogenate. To be noted: percent of vehicle; for activity at 1 µM: compound @1 µM, read-out: Rat Brain 2AG % VehCntrl (%) @1 µM; for activity at 10 µM: compound @10 µM, read-out: Rat Brain 2AG % VehCntrl (%) @10 µM. In kind it is biochemical.

The target of test [2] is T3, mutant MGL (mut-MGLL 11-313 L179S L186S) (Homo sapiens, UniProt Q99685, L169S/L176S).
T3 construct: purified mutant MGL (mut-MGLL 11-313 L179S L186S)
T3 sequence (Q99685 1-303 L169S/L176S): T1 sequence (Q99685 1-303) with L169S, L176S
Briefly: MGL Enzyme Activity Assay, purified mutant MGL, 4MU-B substrate. In kind it is biochemical. The following applies: mutant MGL 5 nM, 4MU-B 10 μM, 37° C.; read-out: MGL mutant inh IC50. How it is done: All rate-based assays were performed in black 384-well polypropylene PCR microplates (Abgene) in a total volume of 30 μL. Substrate 4-methylumbelliferyl butyrate (4MU-B; Sigma) and either purified mutant MGL (mut-MGLL 11-313 L179S L186S) or purified wild type MGL (wt-MGLL 6H-11-313) were diluted separately into 20 mM PIPES buffer (pH=7.0), containing 150 mM NaCl and 0.001% Tween 20. Compounds of Formula (I), including Formulas I(a), I(b), and I(c), were pre-dispensed (50 nL) into the assay plate using a Cartesian Hummingbird prior to adding 4MU-B (25 μL of 1.2× solution to a final concentration of 10 μM) followed by enzyme (5 μL of a 6× solution to a final concentration of 5 nM) to initiate the reaction. Final compound concentrations ranged from 17 to 0.0003 μM. The fluorescence change due to 4MU-B cleavage was monitored with excitation and emission wavelengths of 335 and 440 nm, respectively, and a bandwidth of 10 nm (Safire^2, Tecan) at 37° C. for 5 min.
as §1

A further test has as its target T4, mutant MGL (Homo sapiens, UniProt Q99685, L169S/L176S).
T4 construct: purified mutant MGL (mut-MGLL 11-313 L179S L186S)
T4 sequence (Q99685 1-303 L169S/L176S): T1 sequence (Q99685 1-303) with L169S, L176S
Nature of the test: MGL ThermoFluor Assay - Mutant. The test is classed as binding. The following applies: 0.07 mg/ml mutant MGL, 100 μM ANS, pH 7.0. How it is done: The ThermoFluor (TF) assay is a 384-well plate-based binding assay that measures thermal stability of proteins^1,2. The experiments were carried out using instruments available from Johnson & Johnson Pharmaceutical Research & Development, LLC. TF dye used in all experiments was 1,8-ANS (Invitrogen: A-47). Final TF assay conditions used for MGL studies were 0.07 mg/ml of mutant MGL, 100 μM ANS, 200 mM NaCl, 0.001% Tween-20 in 50 mM PIPES (pH=7.0).
Screening compound plates contained 100% DMSO compound solutions at a single concentration. […] Columns 12 and 24 were used as DMSO reference and contained no compound. […] Following compound dispension, protein and dye solutions were added to achieve the final assay volume of 3 μL.
Bar-coded assay plates were robotically loaded onto a thermostatically controlled PCR-type thermal block and then heated from 40 to 90° C. degrees at a ramp-rate of 1° C./min for all experiments. Fluorescence was measured by continuous illumination with UV light (Hamamatsu LC6), supplied via fiber optics and filtered through a band-pass filter (380-400 nm; >60D cutoff). Fluorescence emission of the entire 384-well plate was detected by measuring light intensity using a CCD camera (Sensys, Roper Scientific) filtered to detect 500±25 nm, resulting in simultaneous and independent readings of all 384 wells. A single image with 20-sec exposure time was collected at each temperature, and the sum of the pixel intensity in a given area of the assay plate was recorded vs temperature and fit to standard equations to yield the Tm^1. • 1.
The Kd values for certain compounds of Formula (I) were determined from a fit of the equation to the concentration-response plot of the fractional activity as a function of […]. For some experiments, quantitative NMR spectroscopy (qNMR) was used to measure concentration of the initial 100% DMSO compound solutions and, using the same fitting method, qKd values were determined.
On the technique in general: In DSF a fluorescence change marks the thermal transition of the protein.

One may read the IC50 as the concentration needed to halve the response being measured. Take `O=C(NC1CN(C2CN(C(=O)c3ccc4c(ccn4-c4ccc(F)c(F)c4)c3)C2)C1)c1nccs1` [Cpd 57, N-(1′-{[1-(3,4-Difluorophenyl)-1H-indol-5-yl]carbonyl}-1,3′-biazetidin-3-yl)-1,3-thiazole-2-carboxamide]: the IC50 in test [1] stood at 7 nM. The activity at 1 µM at MGL was 424%.

For the compound `O=C(NC1CN(C2CN(C(=O)c3ccc4c(ccn4-c4ccc(F)cc4F)c3)C2)C1)c1cscn1` [Cpd 60, N-(1′-{[1-(2,4-Difluorophenyl)-1H-indol-5-yl]carbonyl}-1,3′-biazetidin-3-yl)-1,3-thiazole-4-carboxamide], the IC50 in test [1] was found to be 11 nM. Further, the activity at 1 µM at MGL stood at 273%.

For the compound `Cc1c(C(=O)N2CC(N3CC(NC(=O)c4nccs4)C3)C2)sc2cc(Br)ccc12` [Cpd 65, N-{1′-[(6-Bromo-3-methyl-1-benzothiophen-2-yl)carbonyl]-1,3′-biazetidin-3-yl}-1,3-thiazole-2-carboxamide], the IC50 in test [1] was below 5 nM. Moreover, at MGL, the activity at 1 µM turned out to be 324%.

As usually defined, the Kd is the equilibrium constant for the complex coming apart. Consider `CS(=O)(=O)c1cccc(-c2ccc(C(=O)N3CC(N4CC(N5Cc6ccccc6C5=O)C4)C3)cc2)c1` [Cpd 80, 2-(1′-{[3′-(Methylsulfonyl)biphenyl-4-yl]carbonyl}-1,3′-biazetidin-3-yl)-2,3-dihydro-1H-isoindol-1-one], for which, in test [2], the half-maximal inhibitory concentration (IC50) was found to be 19 nM. Also, the activity at 1 µM on MGL was found to be 166%. For the same compound, the Kd on mutant MGL worked out at 192 nM.

Regarding `O=C(NC1CN(C2CN(C(=O)c3ccc4c(ccn4-c4ccc(F)cc4)c3)C2)C1)c1cscn1` [Cpd 11, N-(1′-{[1-(4-Fluorophenyl)-1H-indol-5-yl]carbonyl}-1,3′-biazetidin-3-yl)-1,3-thiazole-4-carboxamide], the 50% inhibitory concentration (IC50) in test [2] worked out at 15 nM. Besides, on MGL, the activity at 10 µM was 220%. Further, the dissociation constant (Kd) at mutant MGL was determined as 44 nM.

On to `Cc1cc(-c2ccc(C(F)(F)F)cc2)ccc1C(=O)N1CC(N2CC(NC(=O)c3nccs3)C2)C1` [Cpd 63, N-(1′-{[3-Methyl-4′-(trifluoromethyl)biphenyl-4-yl]carbonyl}-1,3′-biazetidin-3-yl)-1,3-thiazole-2-carboxamide], for which the 50% inhibitory concentration (IC50) in test [1] was 29 nM. Besides, the activity at 1 µM on MGL is 185%.

Consider `Cc1cn(-c2ccc(F)cc2)c2ccc(C(=O)N3CC(N4CC(NC(=O)c5nccs5)C4)C3)cc12` [Cpd 62, N-(1′-{[1-(4-Fluorophenyl)-3-methyl-1H-indol-5-yl]carbonyl}-1,3′-biazetidin-3-yl)-1,3-thiazole-2-carboxamide], for which the IC50 in test [1] was determined as 15 nM. In addition, the activity at 1 µM on MGL came to 334%.

Take `O=C(c1sc2cc(F)ccc2c1Cl)N1CC(N2CC(N3Cc4ccccc4C3=O)C2)C1` [Cpd 100, 2-{1′-[(3-Chloro-6-fluoro-1-benzothiophen-2-yl)carbonyl]-1,3′-biazetidin-3-yl}-2,3-dihydro-1H-isoindol-1-one]: the IC50 in test [2] is below 5 nM. Also, the activity at 1 µM at MGL was 208%. This compound also had a Kd on mutant MGL of 47 nM.

On to `Cc1c(C(=O)N2CC(N3CC(NC(=O)c4nccs4)C3)C2)sc2cc(-c3ccccc3)ccc12` [Cpd 66, N-{1′-[(3-Methyl-6-phenyl-1-benzothiophen-2-yl)carbonyl]-1,3′-biazetidin-3-yl}-1,3-thiazole-2-carboxamide], for which, in test [1], the IC50 was below 5 nM. The activity at 1 µM on MGL came out at 399%.

As for `O=C(c1cc2ccc(Br)cc2s1)N1CC(N2CC(N3Cc4ccccc4C3=O)C2)C1` [Cpd 87, 2-{1′-[(6-Bromo-1-benzothiophen-2-yl)carbonyl]-1,3′-biazetidin-3-yl}-2,3-dihydro-1H-isoindol-1-one], the IC50 in test [2] worked out at 50 nM. Also, the activity at 10 µM at MGL amounted to 250%. This compound also gave a Kd on mutant MGL of 40 nM.

`O=C(NC1CN(C2CN(C(=O)c3ccc(-c4ccc(C(F)(F)F)cc4)cc3F)C2)C1)c1nccs1` [Cpd 59, N-(1′-{[3-Fluoro-4′-(trifluoromethyl)biphenyl-4-yl]carbonyl}-1,3′-biazetidin-3-yl)-1,3-thiazole-2-carboxamide]: the IC50 in test [1] came out at 10 nM. In addition, the activity at 1 µM at MGL is 265%.

On to `O=C(NC1CN(C2CN(C(=O)c3ccc4c(ccn4S(=O)(=O)c4ccccc4)c3)C2)C1)c1nccs1` [Cpd 3, N-(1′-{[1-(Phenylsulfonyl)-1H-indol-5-yl]carbonyl}-1,3′-biazetidin-3-yl)-1,3-thiazole-2-carboxamide], for which, in test [2], the 50% inhibitory concentration (IC50) turned out to be 6 nM. Further, the activity at 1 µM on MGL worked out at 271%. On mutant MGL, this compound showed a Kd of 33.3 nM.

As to `O=C(c1ccc2c(ccn2S(=O)(=O)c2ccccc2)c1)N1CC(N2CC(N3Cc4ccccc4C3=O)C2)C1` [Cpd 71, 2-(1′-{[1-(Phenylsulfonyl)-1H-indol-5-yl]carbonyl}-1,3′-biazetidin-3-yl)-2,3-dihydro-1H-isoindol-1-one], in test [2], the IC50 turned out to be 8 nM. Also, the activity at 10 µM on MGL worked out at 400%. For the same compound, at mutant MGL, binding was characterised by a dissociation constant (Kd) of 50 nM.

Consider `CS(=O)(=O)c1cccc(-c2ccc(C(=O)N3CC(N4CC(NC(=O)c5nccs5)C4)C3)cc2)c1` [Cpd 18, N-(1′-{[3′-(Methylsulfonyl)biphenyl-4-yl]carbonyl}-1,3′-biazetidin-3-yl)-1,3-thiazole-2-carboxamide], for which the IC50 in test [2] is 59 nM. Besides, on MGL, the activity at 1 µM was 218%. Besides, at mutant MGL, the dissociation constant (Kd) was found to be 215 nM.

For `O=C(c1ccc2c(ccn2-c2ccccc2)c1)N1CC(N2CC(N3Cc4ccccc4C3=O)C2)C1` [Cpd 85, 2-{1′-[(1-Phenyl-1H-indol-5-yl)carbonyl]-1,3′-biazetidin-3-yl}-2,3-dihydro-1H-isoindol-1-one], the IC50 in test [2] is 36 nM. Also, the activity at 10 µM at MGL worked out at 693%. Besides, the affinity at mutant MGL, expressed as Kd, was 25 nM.
